From PubChem BioAssay (NCI)
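Cells were grown in 96-well plates and exposed to each compound for 48 hours at five concentrations; endpoints were interpolated linearly between bracketing concentrations, or set to the highest concentration if not reached. Abbreviation: GI50, concentration required for 50% inhibition of growth. At the TGI there is no net growth.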

Tests used:
Experiment in all cases: growth of human tumour cells (NCI), 48 h; in the data active means GI50 below about 0.43 µM; inactive means the rest
RXF 393 renal = test system: RXF 393 renal
SR leukemia = test system: SR leukemia
IGROV1 ovarian = test system: IGROV1 ovarian
NCI-H226 lung = test system: NCI-H226 lung
SW-620 colon = test system: SW-620 colon
SK-MEL-2 melanoma = test system: SK-MEL-2 melanoma
M14 melanoma = test system: M14 melanoma
SK-MEL-28 melanoma = test system: SK-MEL-28 melanoma
SF-295 CNS = test system: SF-295 CNS
HCC-2998 colon = test system: HCC-2998 colon

CCn1c(-c2cc3ccccc3cc2OC(=O)c2ccccc2)n[nH]c1=S
> 50 µM: TGI (RXF 393 renal) | TGI (SR leukemia) | TGI (NCI-H226 lung) | TGI (SW-620 colon) | TGI (SK-MEL-2 melanoma) | TGI (M14 melanoma) | TGI (SK-MEL-28 melanoma) | TGI (SF-295 CNS)
8.54 µM: TGI (IGROV1 ovarian)
inactive: GI50 (RXF 393 renal) > 50 µM | GI50 (SR leukemia) 19.8 µM | GI50 (IGROV1 ovarian) 1.51 µM | GI50 (NCI-H226 lung) > 50 µM | GI50 (SW-620 colon) > 50 µM | GI50 (SK-MEL-2 melanoma) 25.5 µM | GI50 (M14 melanoma) > 50 µM | GI50 (SK-MEL-28 melanoma) > 50 µM | GI50 (SF-295 CNS) 27 µM

N#CC(C#N)=C/C=C/c1cccc([N+](=O)[O-])c1
3.23 µM: TGI (SK-MEL-28 melanoma)
15.3 µM: TGI (SR leukemia)
10.3 µM: TGI (SF-295 CNS)
9.32 µM: TGI (IGROV1 ovarian)
2.06 µM: TGI (RXF 393 renal)
2.57 µM: TGI (SW-620 colon)
3.05 µM: TGI (HCC-2998 colon)
2.18 µM: TGI (M14 melanoma)
inactive: GI50 (RXF 393 renal) 0.8 µM | GI50 (SR leukemia) 0.576 µM | GI50 (IGROV1 ovarian) 0.71 µM | GI50 (HCC-2998 colon) 1.68 µM | GI50 (SW-620 colon) 0.914 µM | GI50 (M14 melanoma) 0.658 µM | GI50 (SK-MEL-28 melanoma) 1.38 µM | GI50 (SF-295 CNS) 2.28 µM

COc1cc(C(N)=O)c(OC)c(OC)c1OC
> 100 µM: TGI (RXF 393 renal) | TGI (IGROV1 ovarian) | TGI (NCI-H226 lung) | TGI (HCC-2998 colon) | TGI (SW-620 colon) | TGI (SK-MEL-2 melanoma) | TGI (M14 melanoma) | TGI (SK-MEL-28 melanoma) | TGI (SF-295 CNS)

Clc1ccc(CCN2CCOCC2)c(Cl)c1
> 100 µM: TGI (RXF 393 renal) | TGI (SR leukemia) | TGI (IGROV1 ovarian) | TGI (HCC-2998 colon) | TGI (SK-MEL-2 melanoma) | TGI (M14 melanoma) | TGI (SK-MEL-28 melanoma) | TGI (SF-295 CNS)

OCC1CC2CC1C1(C2)OCCO1 (stereo unspecified)
> 100 µM: TGI (RXF 393 renal) | TGI (SR leukemia) | TGI (IGROV1 ovarian) | TGI (NCI-H226 lung) | TGI (SW-620 colon) | TGI (SK-MEL-2 melanoma) | TGI (M14 melanoma) | TGI (SK-MEL-28 melanoma) | TGI (SF-295 CNS)

CC(C)c1cc2c(O)c(c1)Cc1cc(C(C)C)cc(c1O)Cc1cc(C(C)C)cc(c1O)Cc1cc(C(C)C)cc(c1O)Cc1cc(C(C)C)cc(c1O)Cc1cc(C(C)C)cc(c1O)C2
> 100 µM: TGI (RXF 393 renal) | TGI (IGROV1 ovarian) | TGI (HCC-2998 colon) | TGI (SW-620 colon) | TGI (SK-MEL-2 melanoma) | TGI (M14 melanoma) | TGI (SK-MEL-28 melanoma) | TGI (SF-295 CNS)

CN(C)c1ccc(/C=N/Nc2ccc(-c3nc4ccccc4[nH]3)cc2)cc1
46.8 µM: TGI (M14 melanoma)
26.4 µM: TGI (SK-MEL-2 melanoma)
> 50 µM: TGI (IGROV1 ovarian) | TGI (SW-620 colon) | TGI (SF-295 CNS)
inactive: GI50 (IGROV1 ovarian) 9.37 µM | GI50 (SW-620 colon) 18.9 µM | GI50 (SK-MEL-2 melanoma) 8.27 µM | GI50 (M14 melanoma) 13.2 µM | GI50 (SF-295 CNS) 3.19 µM

CC(=O)Nc1[nH]c(=O)[nH]c(=O)c1N(C(C)=O)C(C)=O
> 100 µM: TGI (RXF 393 renal) | TGI (IGROV1 ovarian) | TGI (NCI-H226 lung) | TGI (HCC-2998 colon) | TGI (SW-620 colon) | TGI (SK-MEL-2 melanoma) | TGI (M14 melanoma) | TGI (SK-MEL-28 melanoma) | TGI (SF-295 CNS)

c1ccc(CN(Cc2ccccn2)Cn2cccn2)nc1
> 100 µM: TGI (RXF 393 renal) | TGI (SR leukemia) | TGI (SW-620 colon) | TGI (SK-MEL-2 melanoma) | TGI (M14 melanoma) | TGI (SK-MEL-28 melanoma) | TGI (SF-295 CNS)

CC1=C[C@H]2C[C@@]3(C)O[C@@H]([C@]4(C)CC[C@H]([C@@H](C)C(=O)O)OO4)CC3C(C)(C)[C@H]2CC1 (stereo partly specified)
2.28 µM: TGI (HCC-2998 colon)
2.95 µM: TGI (SK-MEL-28 melanoma)
3.44 µM: TGI (SF-295 CNS)
3.21 µM: TGI (SK-MEL-2 melanoma)
0.856 µM: TGI (SW-620 colon)
3.82 µM: TGI (NCI-H226 lung)
2.96 µM: TGI (M14 melanoma)
2.53 µM: TGI (RXF 393 renal)

Cc1nc(Nc2ccc([N+](=O)[O-])cc2)sc1C(=O)/C=C/c1ccc(N(C)C)cc1
> 100 µM: TGI (RXF 393 renal) | TGI (IGROV1 ovarian) | TGI (HCC-2998 colon) | TGI (SW-620 colon) | TGI (SK-MEL-2 melanoma) | TGI (SK-MEL-28 melanoma) | TGI (SF-295 CNS)

O=C(O)CNS(=O)(=O)c1ccc(NC(=O)c2cccc([N+](=O)[O-])c2)cc1
> 100 µM: TGI (RXF 393 renal) | TGI (IGROV1 ovarian) | TGI (NCI-H226 lung) | TGI (HCC-2998 colon) | TGI (SW-620 colon) | TGI (SK-MEL-2 melanoma) | TGI (M14 melanoma) | TGI (SK-MEL-28 melanoma) | TGI (SF-295 CNS)

OCC(O)C(OC1OC(CO)C(O)C(O)C1O)c1nn(-c2ccc(F)cc2)c2nc3cc(Cl)c(Cl)cc3cc12 (stereo unspecified)
> 100 µM: TGI (RXF 393 renal) | TGI (SR leukemia) | TGI (HCC-2998 colon) | TGI (M14 melanoma) | TGI (SK-MEL-28 melanoma) | TGI (SF-295 CNS)

O=C1C=Cc2noc3cccc1c23
35.1 µM: TGI (NCI-H226 lung)
23.2 µM: TGI (M14 melanoma)
16.2 µM: TGI (SW-620 colon)
28.6 µM: TGI (HCC-2998 colon)
21.2 µM: TGI (SK-MEL-2 melanoma)
32.8 µM: TGI (SF-295 CNS)
17.6 µM: TGI (SK-MEL-28 melanoma)
5.67 µM: TGI (RXF 393 renal)
29.4 µM: TGI (IGROV1 ovarian)

COCCOCCOCCOCCOc1ccc2c(c1)C(=O)c1nc3ncccc3c(=O)n1-2
1.44 µM: TGI (M14 melanoma)
2.36 µM: TGI (SW-620 colon)
9.26 µM: TGI (RXF 393 renal)
inactive: GI50 (RXF 393 renal) 2.65 µM | GI50 (SR leukemia) 2.25 µM | GI50 (NCI-H226 lung) 1.65 µM | GI50 (HCC-2998 colon) 1.32 µM | GI50 (SW-620 colon) 1.15 µM | GI50 (SK-MEL-2 melanoma) 2.42 µM | GI50 (SK-MEL-28 melanoma) 0.765 µM
2.79 µM: TGI (HCC-2998 colon)
> 100 µM: TGI (SR leukemia)
2.03 µM: TGI (SK-MEL-28 melanoma)
6.21 µM: TGI (SK-MEL-2 melanoma)
active: GI50 (M14 melanoma) 0.312 µM | GI50 (SF-295 CNS) 0.351 µM
1.4 µM: TGI (SF-295 CNS)
3.31 µM: TGI (NCI-H226 lung)

COCCn1cc(-c2csc(-c3c[nH]c4ccc(F)cc34)n2)c2cccnc21
inactive: GI50 (RXF 393 renal) 5.91 µM | GI50 (SR leukemia) 3.24 µM | GI50 (IGROV1 ovarian) 3.49 µM | GI50 (HCC-2998 colon) 4.54 µM | GI50 (SW-620 colon) 3.63 µM | GI50 (SK-MEL-2 melanoma) 3.89 µM | GI50 (M14 melanoma) 3.14 µM | GI50 (SK-MEL-28 melanoma) 7.73 µM | GI50 (SF-295 CNS) 3.2 µM
> 100 µM: TGI (RXF 393 renal) | TGI (SR leukemia) | TGI (IGROV1 ovarian) | TGI (HCC-2998 colon) | TGI (SW-620 colon) | TGI (SK-MEL-2 melanoma) | TGI (M14 melanoma) | TGI (SK-MEL-28 melanoma) | TGI (SF-295 CNS)

COc1cc(C=NCC(=O)CSC(c2ccccc2)c2ccccc2)cc(OC)c1OC
57.3 µM: TGI (HCC-2998 colon)
> 100 µM: TGI (SR leukemia) | TGI (NCI-H226 lung) | TGI (SW-620 colon) | TGI (M14 melanoma) | TGI (SK-MEL-28 melanoma)
inactive: GI50 (RXF 393 renal) 23.7 µM | GI50 (SR leukemia) 14 µM | GI50 (NCI-H226 lung) 17.9 µM | GI50 (HCC-2998 colon) 23 µM | GI50 (SW-620 colon) 32.7 µM | GI50 (SK-MEL-2 melanoma) 19.6 µM | GI50 (M14 melanoma) 27 µM | GI50 (SK-MEL-28 melanoma) 23.8 µM | GI50 (SF-295 CNS) 11.5 µM
50 µM: TGI (SK-MEL-2 melanoma)
58.2 µM: TGI (SF-295 CNS)
96.4 µM: TGI (RXF 393 renal)

CC(C)(C)c1ccc(C(O)(c2ccc(C(C)(C)C)cc2)c2ccc(C(C)(C)C)cc2)cc1
> 100 µM: TGI (SR leukemia) | TGI (IGROV1 ovarian) | TGI (NCI-H226 lung) | TGI (HCC-2998 colon) | TGI (SW-620 colon) | TGI (SK-MEL-2 melanoma) | TGI (M14 melanoma) | TGI (SK-MEL-28 melanoma) | TGI (SF-295 CNS)

O=C(O)C1C2CC3CC2CC31 (stereo unspecified)
> 100 µM: TGI (RXF 393 renal) | TGI (IGROV1 ovarian) | TGI (SW-620 colon) | TGI (SK-MEL-2 melanoma) | TGI (M14 melanoma) | TGI (SK-MEL-28 melanoma) | TGI (SF-295 CNS)

CN(C)/C(=N/C(=O)Nc1ccccc1)SCc1ccccc1
> 100 µM: TGI (RXF 393 renal) | TGI (IGROV1 ovarian) | TGI (NCI-H226 lung) | TGI (HCC-2998 colon) | TGI (SW-620 colon) | TGI (SK-MEL-2 melanoma) | TGI (M14 melanoma) | TGI (SK-MEL-28 melanoma) | TGI (SF-295 CNS)

Cc1ccc(NC(=O)CCC(=O)C(C#N)c2ccc(Cl)cc2)cc1C (stereo unspecified)
> 100 µM: TGI (RXF 393 renal) | TGI (IGROV1 ovarian) | TGI (NCI-H226 lung) | TGI (HCC-2998 colon) | TGI (SW-620 colon) | TGI (SK-MEL-2 melanoma) | TGI (M14 melanoma) | TGI (SK-MEL-28 melanoma) | TGI (SF-295 CNS)
